{"source": "patent US12318421B2", "about": "(priority 2020, dated 2025)", "origin": "cited, not measured here", "target": "α-glucosidase", "conditions": "values disclosed in references", "data": [{"compound": "O=c1cc(-c2ccc(O)cc2)oc2cc(O)c([C@@H]3O[C@H](CO)[C@@H](O)[C@H](O)[C@H]3O)c(O)c12", "note": "[isovitexin]", "values": [{"measurement": "IC50 of α-glucosidase activity disclosed in references", "value": 46.9, "unit": "mg/L"}]}]}
